In the supplement of paper PMC6045584:
± gives the standard deviation of the averaged measurements.

Key:
[1] = compound: T1, CCCCCCCCCCCCCCCC(=O)Nc1ccn([C@@H]2O[C@H](CO)[C@@H](O)[C@@H]2C#N)c(=O)n1 [SAPACITABINE]; assay: area under dose-response curve of surviving fraction (unscaled, Aref=0) (surviving fraction x log10(nM)); higher = more resistant; details: exposure time: 5 days; dose range 0.5-1000 nM
Outline: (§1)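 Surviving fractions were fitted by 3-parameter logistic regression in the drc R package to give dose-response survival curves. They came from tumour cell lines treated for five days with eight inhibitor concentrations from 0.5 to 1000 nM and read by CellTiter-Glo luminescence against DMSO-only wells. The area under the curve is the unscaled activity area. It was calculated over log10 dose with Aref = 0.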

[2] = compound: T2, CC[C@@H]1C(=O)N(C)c2cnc(Nc3ccc(C(=O)NC4CCN(C)CC4)cc3OC)nc2N1C1CCCC1 [BI-2536]; assay: as above; details: exposure time: 5 days; dose range 0.5-1000 nM
Outline: as §1

[3] = compound: Cn1cc(C2=Nc3cc(NC(=O)C(N)C4CCCCC4)cc4c3C2=CNNC4=O)cn1; assay: as above; details: exposure time: 5 days; dose range 0.5-1000 nM
Outline: as §1

[4] = compound: T3, C=CC(=O)Nc1cc2c(Nc3ccc(F)c(Cl)c3)ncnc2cc1OCCCN1CCOCC1 [CANERTINIB]; assay: as above; details: exposure time: 5 days; dose range 0.5-1000 nM
Outline: as §1

[5] = compound: T4, Nc1nc2[nH]cnc2c(=S)[nH]1 [TIOGUANINE]; assay: as above; details: exposure time: 5 days; dose range 0.5-1000 nM
Outline: as §1

[6] = compound: T5, CC1(C)CC(=O)c2c(C(F)(F)F)nn(-c3ccc(C(N)=O)c(N[C@H]4CC[C@H](OC(=O)CN)CC4)c3)c2C1 [SNX-5422]; assay: as above; details: exposure time: 5 days; dose range 0.5-1000 nM
Outline: as §1

[7] = compound: T6, CNC(=O)c1ccc(N2C(=S)N(c3ccc(C#N)c(C(F)(F)F)c3)C(=O)C2(C)C)cc1F [MDV3100]; assay: as above; details: exposure time: 5 days; dose range 0.5-1000 nM
Outline: as §1

[8] = compound: T1, SAPACITABINE; assay: surviving fraction relative to DMSO-only wells; higher = less growth inhibition; details: exposure time: 5 days
Outline: (§2)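 After seeding at 250–500 cells per well in 384-well plates and a 24-hour wait, log-phase tumour cell lines were exposed without interruption for five days to inhibitors at 0.5, 1, 5, 10, 50, 100, 500 and 1000 nM. CellTiter-Glo luminescence was recorded after 10 minutes at room temperature. Viability is reported as surviving fraction, the luminescence normalised to the median of DMSO-only wells.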

[9] = compound: T2, BI-2536; assay: as above; details: exposure time: 5 days
Outline: as §2

[10] = compound: Cn1cc(C2=Nc3cc(NC(=O)C(N)C4CCCCC4)cc4c3C2=CNNC4=O)cn1; assay: as above; details: exposure time: 5 days
Outline: as §2

[11] = compound: T7, CN(C)C/C=C/C(=O)Nc1cc2c(Nc3ccc(F)c(Cl)c3)ncnc2cc1O[C@H]1CCOC1 [AFATINIB]; assay: as above; details: exposure time: 5 days
Outline: as §2

[12] = compound: T3, CANERTINIB; assay: as above; details: exposure time: 5 days
Outline: as §2

[13] = compound: T4, TIOGUANINE; assay: as above; details: exposure time: 5 days
Outline: as §2

[14] = compound: T5, SNX-5422; assay: as above; details: exposure time: 5 days
Outline: as §2

[15] = compound: T6, MDV3100; assay: as above; details: exposure time: 5 days
Outline: as §2

[16] = compound: T7, AFATINIB; assay: area under dose-response curve of surviving fraction (unscaled, Aref=0) (surviving fraction x log10(nM)); higher = more resistant; details: exposure time: 5 days; dose range 0.5-1000 nM
Outline: as §1

With BT20 BREAST the “area under dose-response curve” value [1] was 1.76, the “area under dose-response curve” value [2] was 0.663 and the “area under dose-response curve” value [3] was 3.17. The “area under dose-response curve” value [4] was 2.52, the “area under dose-response curve” value [5] was 3.43 and the “area under dose-response curve” value [6] was 2.46. The “area under dose-response curve” value [7] was 3.5, the surviving fraction ([8]; 0.5 nM) was 0.764 ± 0.042 and the surviving fraction ([8]; 1 nM) was 0.743 ± 0.021. It also gave a surviving fraction ([8]; 5 nM) of 0.679 ± 0.051, a surviving fraction ([8]; 10 nM) of 0.633 ± 0.11 and a surviving fraction ([8]; 50 nM) of 0.515 ± 0.028. For the same test system, the surviving fraction ([8]; 100 nM) was 0.396 ± 0.025, the surviving fraction ([8]; 500 nM) was 0.211 ± 0.023 and the surviving fraction ([8]; 1000 nM) was 0.281 ± 0.051. The surviving fraction ([9]; 0.5 nM) was 1.01 ± 0.19, the surviving fraction ([9]; 1 nM) was 0.758 ± 0.17 and the surviving fraction ([9]; 5 nM) was 0.0813 ± 0.018. The surviving fraction ([9]; 10 nM) was 0.0613 ± 0.031, the surviving fraction ([9]; 50 nM) was 0.0983 ± 0.025 and the surviving fraction ([9]; 100 nM) was 0.109 ± 0.031. For the same test system, the surviving fraction ([9]; 500 nM) was 0.135 ± 0.056, the surviving fraction ([9]; 1000 nM) was 0.154 ± 0.052 and the surviving fraction ([10]; 0.5 nM) was 1.1 ± 0.05. For the same test system, the surviving fraction ([10]; 1 nM) was 1.08 ± 0.047, the surviving fraction ([10]; 5 nM) was 1.09 ± 0.092 and the surviving fraction ([10]; 10 nM) was 1.05 ± 0.074. It also gave a surviving fraction ([10]; 50 nM) of 0.943 ± 0.08, a surviving fraction ([10]; 100 nM) of 0.847 ± 0.054 and a surviving fraction ([10]; 500 nM) of 0.976 ± 0.1. The surviving fraction ([10]; 1000 nM) was 0.874 ± 0.065, the surviving fraction ([11]; 0.5 nM) was 1.1 ± 0.22 and the surviving fraction ([11]; 1 nM) was 1.03 ± 0.2. For the same test system, the surviving fraction ([11]; 5 nM) was 0.943 ± 0.24, the surviving fraction ([11]; 10 nM) was 0.922 ± 0.15 and the surviving fraction ([11]; 50 nM) was 0.909 ± 0.17. For the same test system, the surviving fraction ([11]; 100 nM) was 0.857 ± 0.3, the surviving fraction ([11]; 500 nM) was 1.18 ± 0.3 and the surviving fraction ([11]; 1000 nM) was 1.28 ± 0.15. For the same test system, the surviving fraction ([12]; 0.5 nM) was 0.691 ± 0.0098, the surviving fraction ([12]; 1 nM) was 0.712 ± 0.017 and the surviving fraction ([12]; 5 nM) was 0.654 ± 0.075. It also gave a surviving fraction ([12]; 10 nM) of 0.609 ± 0.058, a surviving fraction ([12]; 50 nM) of 0.908 ± 0.035 and a surviving fraction ([12]; 100 nM) of 0.899 ± 0.084. It also gave a surviving fraction ([12]; 500 nM) of 0.82 ± 0.057, a surviving fraction ([12]; 1000 nM) of 0.824 ± 0.069 and a surviving fraction ([13]; 0.5 nM) of 1.02 ± 0.028. For the same test system, the surviving fraction ([13]; 1 nM) was 1.05 ± 0.12, the surviving fraction ([13]; 5 nM) was 1.07 ± 0.033 and the surviving fraction ([13]; 10 nM) was 1.03 ± 0.048. The surviving fraction ([13]; 50 nM) was 1.12 ± 0.068, the surviving fraction ([13]; 100 nM) was 1.08 ± 0.081 and the surviving fraction ([13]; 500 nM) was 0.958 ± 0.12. It also gave a surviving fraction ([13]; 1000 nM) of 0.969 ± 0.18, a surviving fraction ([14]; 0.5 nM) of 1.14 ± 0.047 and a surviving fraction ([14]; 1 nM) of 1.1 ± 0.088. For the same test system, the surviving fraction ([14]; 5 nM) was 1.14 ± 0.05, the surviving fraction ([14]; 10 nM) was 1.094 ± 0.0083 and the surviving fraction ([14]; 50 nM) was 0.738 ± 0.039. For the same test system, the surviving fraction ([14]; 100 nM) was 0.411 ± 0.063, the surviving fraction ([14]; 500 nM) was 0.329 ± 0.046 and the surviving fraction ([14]; 1000 nM) was 0.298 ± 0.052. It also gave a surviving fraction ([15]; 0.5 nM) of 1.1 ± 0.12, a surviving fraction ([15]; 1 nM) of 1.15 ± 0.066 and a surviving fraction ([15]; 5 nM) of 1.11 ± 0.042. The surviving fraction ([15]; 10 nM) was 1.14 ± 0.029, the surviving fraction ([15]; 50 nM) was 0.907 ± 0.036 and the surviving fraction ([15]; 100 nM) was 1.13 ± 0.068. It also gave a surviving fraction ([15]; 500 nM) of 0.969 ± 0.1 and a surviving fraction ([15]; 1000 nM) of 1.02 ± 0.03.

In the case of C33A CERVIX, the “area under dose-response curve” value [1] is reported as 2.35, the “area under dose-response curve” value [2] is reported as 0.996 and the “area under dose-response curve” value [3] is reported as 2.75. For the same test system, the “area under dose-response curve” value [16] was 2.23, the “area under dose-response curve” value [5] was 2.8 and the “area under dose-response curve” value [6] was 1.96. The “area under dose-response curve” value [7] was 3.15, the surviving fraction ([8]; 0.5 nM) was 1.09 ± 0.078 and the surviving fraction ([8]; 1 nM) was 0.987 ± 0.071. The surviving fraction ([8]; 5 nM) was 1.12 ± 0.026, the surviving fraction ([8]; 10 nM) was 0.981 ± 0.059 and the surviving fraction ([8]; 50 nM) was 0.711 ± 0.08. The surviving fraction ([8]; 100 nM) was 0.457 ± 0.029, the surviving fraction ([8]; 500 nM) was 0.214 ± 0.024 and the surviving fraction ([8]; 1000 nM) was 0.142 ± 0.021. For the same test system, the surviving fraction ([9]; 0.5 nM) was 1.12 ± 0.021, the surviving fraction ([9]; 1 nM) was 1.13 ± 0.085 and the surviving fraction ([9]; 5 nM) was 0.266 ± 0.052. It also gave a surviving fraction ([9]; 10 nM) of 0.073 ± 0.011, a surviving fraction ([9]; 50 nM) of 0.0473 ± 0.0068 and a surviving fraction ([9]; 100 nM) of 0.036 ± 0.007. For the same test system, the surviving fraction ([9]; 500 nM) was 0.0303 ± 0.01, the surviving fraction ([9]; 1000 nM) was 0.032 ± 0.015 and the surviving fraction ([10]; 0.5 nM) was 0.878 ± 0.066. The surviving fraction ([10]; 1 nM) was 0.99 ± 0.041, the surviving fraction ([10]; 5 nM) was 1.02 ± 0.094 and the surviving fraction ([10]; 10 nM) was 1.03 ± 0.036. It also gave a surviving fraction ([10]; 50 nM) of 0.952 ± 0.046, a surviving fraction ([10]; 100 nM) of 0.833 ± 0.063 and a surviving fraction ([10]; 500 nM) of 0.335 ± 0.011. The surviving fraction ([10]; 1000 nM) was 0.0597 ± 0.025, the surviving fraction ([11]; 0.5 nM) was 0.907 ± 0.059 and the surviving fraction ([11]; 1 nM) was 1.02 ± 0.12. For the same test system, the surviving fraction ([11]; 5 nM) was 0.909 ± 0.046, the surviving fraction ([11]; 10 nM) was 0.939 ± 0.085 and the surviving fraction ([11]; 50 nM) was 0.507 ± 0.0065. For the same test system, the surviving fraction ([11]; 100 nM) was 0.417 ± 0.0072, the surviving fraction ([11]; 500 nM) was 0.337 ± 0.038 and the surviving fraction ([11]; 1000 nM) was 0.23 ± 0.0027. For the same test system, the surviving fraction ([12]; 0.5 nM) was 1.08 ± 0.039, the surviving fraction ([12]; 1 nM) was 1 ± 0.057 and the surviving fraction ([12]; 5 nM) was 1.37 ± 0.12. The surviving fraction ([12]; 10 nM) was 1.04 ± 0.11, the surviving fraction ([12]; 50 nM) was 1.1 ± 0.015 and the surviving fraction ([12]; 100 nM) was 0.84 ± 0.025. The surviving fraction ([12]; 500 nM) was 0.578 ± 0.044, the surviving fraction ([12]; 1000 nM) was 0.349 ± 0.006 and the surviving fraction ([13]; 0.5 nM) was 0.807 ± 0.079. For the same test system, the surviving fraction ([13]; 1 nM) was 0.711 ± 0.052, the surviving fraction ([13]; 5 nM) was 0.9503 ± 0.0032 and the surviving fraction ([13]; 10 nM) was 0.91 ± 0.048. It also gave a surviving fraction ([13]; 50 nM) of 1.03 ± 0.092, a surviving fraction ([13]; 100 nM) of 1.02 ± 0.023 and a surviving fraction ([13]; 500 nM) of 0.707 ± 0.043. The surviving fraction ([13]; 1000 nM) was 0.648 ± 0.061, the surviving fraction ([14]; 0.5 nM) was 1.03 ± 0.086 and the surviving fraction ([14]; 1 nM) was 0.977 ± 0.073. It also gave a surviving fraction ([14]; 5 nM) of 1.03 ± 0.048, a surviving fraction ([14]; 10 nM) of 1.01 ± 0.069 and a surviving fraction ([14]; 50 nM) of 0.316 ± 0.025. It also gave a surviving fraction ([14]; 100 nM) of 0.208 ± 0.086, a surviving fraction ([14]; 500 nM) of 0.056 ± 0.022 and a surviving fraction ([14]; 1000 nM) of 0.0593 ± 0.025. It also gave a surviving fraction ([15]; 0.5 nM) of 0.753 ± 0.059, a surviving fraction ([15]; 1 nM) of 0.772 ± 0.05 and a surviving fraction ([15]; 5 nM) of 0.976 ± 0.063. For the same test system, the surviving fraction ([15]; 10 nM) was 1.07 ± 0.15, the surviving fraction ([15]; 50 nM) was 0.983 ± 0.098 and the surviving fraction ([15]; 100 nM) was 1.02 ± 0.05. For the same test system, the surviving fraction ([15]; 500 nM) was 0.834 ± 0.059 and the surviving fraction ([15]; 1000 nM) was 0.868 ± 0.044.
